Laboratory results from patent publication US20120171123A1, “USES AND COMPOSITIONS FOR TREATMENT OF RHEUMATOID ARTHRITIS” (priority 2006, published 2012).

Assays:
[1] = system: MTX-naïve adult patients with early RA (<3 years); assay: Study J: FACIT-F fatigue; assay type: in vivo, human; conditions: for FACIT-F mean change from baseline: LOCF
From the text: The Health Assessment Questionnaire Disability Index (HAQ DI) is a disease-specific tool that measures patient-reported physical function in 8 categories corresponding to normal activities in daily living. Fatigue is an important yet still often overlooked systemic symptom of RA. The Functional Assessment of Chronic Illness Therapy-Fatigue (FACIT-F) tool, measured by a 13-item, validated scale, assesses the impact of a disease and its therapy on fatigue.
Study J is described in detail in the above examples. The Health Assessment Questionnaire Disability Index (HAQ DI) and Functional Assessment of Chronic Illness Therapy-Fatigue (FACIT-F) were assessed at baseline, and following 12, 26, 42, 52, 76, and 104 weeks of therapy. Changes in scores were computed by subtracting the baseline from post-treatment score for each patient; mean changes were reported for each treatment group. The HAQ DI is assessed on a scale of 0-3, with higher numbers indicating greater disability. The minimum clinically important difference (MCID) is defined as changes ≧0.22 (Goldsmith C H, et al. J Rheumatol 1993; 20-561-5). The FACIT-F is assessed on a scale of 0-52, with higher scores indicating less fatigue. Changes of ≧4 are considered clinically meaningful (Cella D, et al. J Pain Symptom Manage 2002:24:547-61).

[2] = system: patients with moderate to severe rheumatoid arthritis; assay: Study C: DAS28; assay type: in vivo, human
Method: The Canadian Adalimumab Clinical Trial (Study C) was an open-label, multi-center, Phase IIIb study conducted in Canada. […] Efficacy and safety were assessed at baseline, 4, 8, and 12 weeks. Efficacy assessments included tender joint count (TJC 0-28), swollen joint count (SJC 0-28), Disease Activity Score 28 (DAS28), Health Assessment Questionnaire (HAQ), and EULAR response. This was a preliminary analysis of 236 patients. The sample size for each outcome variable is based on the data available at the time of the analysis. The data from this preliminary analysis were compared with the Week 12 data from Study A (N=2008).

Compound	FACIT-F mean score ([1]; Baseline)	FACIT-F mean change from baseline ([1]; ΔWeek 12)	FACIT-F mean change from baseline ([1]; ΔWeek 26)	FACIT-F mean change from baseline ([1]; ΔWeek 42)	FACIT-F mean change from baseline ([1]; ΔWeek 52)	FACIT-F mean change from baseline ([1]; ΔWeek 76)	FACIT-F mean change from baseline ([1]; ΔWeek 104)	DAS28 (mean), change from baseline ([2]; Study C, 12 weeks, preliminary analysis)	mean decrease in DAS28 score ([2]; week 12)	patients achieving DAS28<2.6 ([2]; week 12)	reduction in DAS28 score ([2]; week 12)	mean DAS28 ([2]; week 12 (baseline 6.5))
CN(Cc1cnc2nc(N)nc(N)c2n1)c1ccc(C(=O)N[C@@H](CCC(=O)O)C(=O)O)cc1 [mtx alone, methotrexate]	29.0	7.8	9.5	9.3	9.0	8.5	8.8	–	–	–	–	–
adalimumab: human anti-TNF mAb (HUMIRA, Abbott Laboratories), described in U.S. Pat. No. 6,090,382 as D2E7	–	–	–	–	–	–	–	−2.1 (116)	−2.1	10%	32%	4.4
